Test results as given in patent US20250099440A1, “A PHARMACEUTICAL COMBINATION AND USE THEREOF” (Ascentage Pharma (Suzhou) Co., Ltd., priority 2021, published 2025).

Columns and labels:
[1] = tested on: RS4;11 cells carrying different Bcl-2 mutation; assay: Cell viability CTG assay in RS4;11 cells, wild type and Bcl-2 mutants; assay type: cell-based, human
Procedure: (§1) Cell viability was determined using CellTiter-Glo® luminescent cell viability assay (Promega) or WST assay (Cell counting Kit-8, Shanghai life iLab, China) by following manufacturer's instruction. Cell viability was calculated as cell viability=(mean RLU sample−mean RLU blank)/(RLU cell control−RLU blank)×100. IC50 value was calculated using GraphPad Prism. Combination index (CI) value was calculated by CalcuSyn software (BIOSOFT, UK). CI<0.9 indicate a synergistic combination effect. CI<0.1 scored as 5+ indicates very strong synergistic combination effect, CI between 0.1 and 0.3 scored as 4+ indicates strong synergistic combination effect, CI between 0.3 and 0.7 scored as 3+ indicates medium synergistic combination effect. Method used was the cell viability CTG assay. RS4;11 cells were established from the bone marrow of a patient with acute lymphoblastic leukemia (ALL).

RPMI 8226 cells = assay: Cell viability CTG assay in BCL-2i insensitive RPMI 8226 MM cells; assay type: cell-based
Procedure: as §1, with “effect.” for “effect. Method used was the cell viability CTG assay. RS4;11 cells were established from the bone marrow of a patient with acute lymphoblastic leukemia (ALL).”
Method used was the cell viability CTG assay.

[2] = tested on: KMS27 drug-resistant (DTEP) clones; assay: Venetoclax-resistant DTEP clones of KMS27 MM cell line: proliferation and apoptosis; assay type: cell-based
Description: Compared with the parent cells, IC50 is increased by at least 3 to 10 times.

MM1.S [3] = assay: Cell death in Venetoclax-resistant MM cell line MM1.S; assay type: cell-based; settings: compared with Venetoclax and Navitoclax
KMS34 [4] = assay: Cell death in Venetoclax-resistant MM cell line KMS34; assay type: cell-based; settings: compared with Venetoclax and Navitoclax
primary MM cells = assay: Primary MM cells from 4 MM patients in vitro; assay type: cell-based, human; settings: compared with venetoclax
Description: The activity of compound E was confirmed in primary MM cells in vitro.

NCI-H929 = assay: Cell viability CTG assay in BCL-2i resistant MM model NCI-H929; assay type: cell-based; settings: insensitive or resistant to BCL-2 inhibitor
Procedure: as §1, with “effect.” for “effect. Method used was the cell viability CTG assay. RS4;11 cells were established from the bone marrow of a patient with acute lymphoblastic leukemia (ALL).”
Method used was the cell viability CTG assay. BCL-2i resistant MM mode NCI-H929 was established.

MM1.S [5] = assay: CDX model of MM1.S; assay type: in vivo
KMS34 [6] = assay: CDX model of KMS34; assay type: in vivo
platelet = settings: compared with Compound E; cited from earlier work

CCN1[C@@H](C(=O)NC23CCC(C(=O)O)(CC2)CC3)[C@H](c2cccc(Cl)c2F)[C@]2(C(=O)Nc3cc(Cl)ccc32)C12CCCCC2 [APG-115]
cell viability ([1]; RS4;11-WT and RS4;11 carrying G101V, D103E, V156D, G101V-D103E, CTG): effectively decrease cell viability | IC50 (CTG 72 h) compared with ABT-199 (venetoclax) ([1]; all RS4;11 cell lines (WT and Bcl-2 mutants), 72 h): lower than those of ABT-199 (venetoclax) in all cell lines

Cc1c(S(C)(=O)=O)c(-c2cc(F)cc(N3CCN(c4ccc(NS(=O)(=O)c5ccc(N[C@H](CCN6CCC(C(=O)O)CC6)CSc6ccccc6)c(S(=O)(=O)C(F)(F)F)c5)cc4)CC3)c2)c(-c2ccc(Cl)cc2)n1C(C)C [APG-1252M1]
inhibition of cell proliferation (RPMI 8226 cells; RPMI 8226 model, insensitive to BCL-2 inhibitor): single agent activity in inhibiting cell proliferation | apoptosis [2]: induced apoptosis | proliferation of drug-resistant clones ([2]; compared with Venetoclax): successfully inhibited the proliferation of drug-resistant clones | cell death induction (MM1.S [3]): the most effective in inducing cell death | cell death induction (KMS34 [4]): the most effective in inducing cell death | activity in primary MM cells (primary MM cells): higher than venetoclax

CN[C@@H](C)C(=O)N[C@H]1CN(S(=O)(=O)c2cccc(S(=O)(=O)N3CC[C@H]4CC[C@@H](C(=O)NC(c5ccccc5)c5ccccc5)N4C(=O)[C@@H](NC(=O)[C@H](C)NC)C3)c2)CC[C@H]2CC[C@@H](C(=O)NC(c3ccccc3)c3ccccc3)N2C1=O [APG-1387]
inhibition of cell proliferation (NCI-H929): single agent activity to inhibit cell proliferation

O=C(NS(=O)(=O)c1ccc(NC[C@H]2COCCO2)c([N+](=O)[O-])c1)c1ccc(N2CCN(CC3=C(c4ccc(Cl)cc4)CC4(CCC4)CC3)CC2)cc1Oc1cnc2[nH]ccc2c1 [APG-2575, (S)—N-((4-(((1,4-dioxan-2-yl)methyl)amino)-3-nitrophenyl)sulfonyl)-2-((1H-pyrrolo[2,3-b]pyridin-5-yl)oxy)-4-(4-((6-(4-chlorophenyl)spiro[3.5]non-6-en-7-yl)methyl)piperazin-1-yl)benzamide]
IC50 (RPMI 8226 cells; Homo sapiens, RPMI 8226 cells, CTG): 5.58 µM

Cc1c(S(C)(=O)=O)c(-c2cc(F)cc(N3CCN(c4ccc(NS(=O)(=O)c5ccc(N[C@H](CCN6CCC(C(=O)OCCCP(=O)(O)O)CC6)CSc6ccccc6)c(S(=O)(=O)C(F)(F)F)c5)cc4)CC3)c2)c(-c2ccc(Cl)cc2)n1C(C)C [compound D, (3R)-1-(3-(4-(4-(4-(3-(2-(4-chlorophenyl)-1-isopropyl-4-methylsulfonyl-5-methyl-1H-pyrrol-3-yl)-5-fluorophenyl)piperazin-1-yl)-phenylaminosulfonyl)-2-trifluoromethylsulfonyl-anilino)-4-phenylthio-butyl)-piperidine-4-carboxylic acid 3-phosphonopropyl ester]
efficacy in CDX model (MM1.S [5]): also effective | efficacy in CDX model (KMS34 [6]): also effective | platelet toxicity (platelet): lower platelet toxicity
